Test results reported in US20060210620A1, “Co-precipitated amorphous losartan and dosage forms comprising the same” (priority 2003, published 2006).

Experiment: Accelerated stability testing at 40° C. and 75% relative humidity, solid form evaluated by X-ray diffraction
Format: physicochemical
Conditions: storage time not stated (spectra taken later in time, FIG. 1)
Method: The term “stable” as used herein refers to less than about 5% conversion of the amorphous form of losartan to a crystalline form of losartan when stored at 40° C. and 75 percent relative humidity for three months.
The amorphous solids of the following examples were evaluated for the presence of crystals and/or other degradative products using X-ray diffraction (XRD) techniques, supplemented with infrared and differential scanning calorimetry. The examples are meant to further exemplify the invention and are not intended to limit the scope of the invention.

Compound: CCCCc1nc(Cl)c(CO)n1Cc1ccc(-c2ccccc2-c2nn[nH]n2)cc1 [Example 1, losartan potassium]
- Solid form (amorphous/crystalline) by XRD after accelerated stability conditions: almost all of the solid material converted to the crystalline form
